From patent US20060135587A1, “Method and compounds for promoting healing and reducing inflammation” (priority 2002, published 2006)

How the values were obtained:
[1] = test system: regeneration of liver after partial hepatectomy; assay: Liver regeneration after partial hepatectomy in rats; format: in vivo; settings: for Level of recovery: 7 days, hepatectomy alone = 100
Procedure: Partial hepatectomy was performed using the conventional method (Higgins and Anderson, 1931) by removing the left lateral and central lobes of the liver from 80 male white rats, weighing 180-200 g.
Compound 2, Compound 4, Compound 5 or Compound 6 was administered to the experimental groups intraperitoneally in equimolar doses of 0.1 mM/kg and 0.2 mM/kg. These optimal doses were determined in preliminary experiments. The control group received intraperitoneal injections of saline solution. The compounds were administered on the day after the operation and then one injection was given daily over the course of 7 days, since maximum growth of the liver mass in rats is observed in the first 7 days after partial hepatectomy (Solopaev, 1980).
The effectiveness of the compounds was compared to that of a combination of non-steroid anabolic regeneration stimulators which are used in the treatment of liver pathology, namely Riboxin and potassium orotate at a dose of 0.2 mM/kg each (Rychnev and Frolov, 1984).
For quantitative evaluation of the regeneration process in the liver the coefficient of regeneration completion as determined by the formula below was used: [formula] where
Stimulation of the regeneration of tissue after hepatectomy in response to different medicinal preparations is associated with an increase in the synthesis of nucleic acids, as indicated by the increase in the content of RNA and DNA in the regenerated tissue. Quantitative analysis of DNA and RNA was performed by centrifugation. […] The enzymic component of anti-oxidant protection was also assessed on the basis of the activity of catalase and superoxidedismutase (SOD).
5 ml of […] of HCIO4 solution were added to the sample (100 mg). In order to ensure complete sedimentation of the acid-insoluble fraction, the beakers were put in ice for 15 minutes. Then they were centrifuged for 10 minutes at 5000 revolutions per minute. The sediment was washed twice with 0.2 M HCIO4. After the final centrifugation, the walls of the beaker were carefully dried with gauze and filter paper. The sediment was ground down with a glass pestle, suspended in 1 ml of water and then 1 ml of 0.6 M KON solution was added at room temperature. Hydrolysis was performed over the course of 1 hour at 37° C., then the beakers were put in ice to stop the hydrolysis process. 4 ml of the 0.6 M solution were added to each beaker and the beakers were left in ice for another 15 minutes, then centrifuged for 15 minutes at 5000 revolutions per minute. The supernatant was used to determine the RNA by UV absorption at 260 nm and 290 nm compared to the control sample containing 0.4M of HCIO4). The amount of RNA in μg per 1 ml of the supernatant was calculated using the following formula: [formula] where C=is the RNA concentration (μg/ml)
DNA analysis was carried out on the sediment remaining after the alkaline hydrolysis used to determine RNA. 0.5 M of HCIO4 (5 ml per sample) was poured into the dried beaker containing the sediment. Hydrolysis was performed in a boiling water bath for 20 minutes. The amount of DNA in μg per 1 ml of the hydrolysate was calculated using the following formula: [formula] where C=is the DNA concentration (μg/ml). Catalase Activity
Catalase activity was determined using the permanganate method. The optimal amount of the substrate (3 ml of 1% H2O2) and 1 ml of the enzyme were added to 10 ml of phosphate buffer, pH 7.8. After 10 minutes the reaction was stopped by adding 1.5 ml of H2SO4 (50%). The remaining hydrogen peroxide was filtered with 0.1M of KMnO4 solution. Catalase activity was calculated on the basis that 1 ml of 0.1M of KMnO4 solution corresponds to […] of H2O2.
SOD activity was determined using the dianisidine method, which is based on the fact that under ultraviolet irradiation Riboflavin (Rb) is converted to an excited (ionised) state and therefore becomes able to attack reduced dianisidine (DH2). […]

[2] = test system: carbon tetrachloride-induced liver damage; assay: Carbon tetrachloride-induced liver damage in rats; format: in vivo; settings: 20 mg/kg orally; CCl4 intoxication
Procedure: The prophylactic and therapeutic effects of Compound 2 on liver damage were examined in a carbon tetrachloride intoxication model. Liver dysfunction was induced by the […] injection of a liquid paraffin-based 50% carbon tetrachloride solution at a dose of 0.8 ml per 100 g of body mass daily for four days. Inbred male white rats weighing 200-220 g were treated with Compound 2 at a dose of 20 mg/kg given orally by intragastric tube on the eighth day after injection of carbon tetrachloride, and daily for four days thereafter. Control animals received carbon tetrachloride only. Animals were sacrificed 7 days after the last injection of carbon tetrachloride, when the morphological changes are most pronounced, and samples of liver were taken for histology.

[3] = test system: gastric and duodenal ulcer; assay: Clinical trial in gastric and duodenal ulcer; format: in vivo, human; settings: three 0.2 g tablets per day orally for three weeks
Procedure: A clinical trial of the effect of Compound 2 on gastric and duodenal ulcer was carried out in several gastroenterological clinics in Russia. A total of 167 patients, 30 to 75 years old, was studied; of these 93 had duodenal ulcers and 74 had gastric ulcers. The results were monitored by gastroscopy at weekly intervals. Each patient continued to receive the treatment which s/he had been given prior to commencement of the trial. Compound 2 was administered in addition to the previous treatment. Compound 2 was given orally as three 0.2 g tablets per day over a period of three weeks, ie a total dose of […] for the treatment course, Compound 2 healed 80% of all the duodenal ulcers treated, and 54% of all the gastric ulcers treated. […] The effect of Compound 2 was compared with those of a placebo, or cimetidine. Even better results were obtained when Compound 2 was administered together with conventional therapy. […] Following termination of treatment with Compound 2 no ulceration was observed, ie there was no sign of the abstinence syndrome which is typically seen with H2-blockers and hormones. Compound 2 was an effective therapeutic agent with a pronounced reparative effect on erosive and ulcerating injuries of the gastroduodenal area.

[4] = test system: carrageenin-induced inflammation; assay: Carrageenin-induced inflammation in intact and adrenalectomized rats; format: in vivo
Procedure: An acute inflammatory oedema was induced in intact and adrenalectomized male rats weighing 180-200 g by sub-plantar injection of 0.1 ml of 1% carrageenin solution into the left paw (Winter et al., 1962). The same volume of saline solution was injected into the contralateral paw. […] There were 10 rats in each group.
The degree of carrageenin-induced inflammation of the ankle joints was assessed at 3 hours after the induction of the inflammation, on the basis of the change in weight of the experimental and control paws (reaction index).

[5] = Adrenalectomized animals, 50 mg/kg 4 days + carrageenin
[6] = Adrenalectomized animals, 100 mg/kg 4 days + carrageenin
[7] = Intact animals, 100 mg/kg 4 days + carrageenin

## CC[n+]1cn(C)c(C(=O)NC)c1C(=O)NC.O=S(=O)([O-])c1ccccc1 [Compound 2, 1-methyl-3-ethyl-4,5-bis(N-methylcarbamoyl)-imidazolium benzenesulfonate]
[1]; 0.1 mM/kg
  Catalase E activity: 18.0 ± 3.1 μgM/min/g tissue × 1000
  DNA content (in mg/g of tissue): 4.2 ± 0.37 mg/g of tissue
  Protein content: 86.4 ± 9.8 Mg/g tissue
  RNA content (mg/g of tissue): 7.07 ± 0.18 mg/g of tissue
  SOD activity: 78.9 ± 5.8 Units/g tissue
[1]; 0.1 mM/kg intraperitoneally
  Level of recovery: 150.5
[1]; 0.1 mM/kg or 0.2 MM/kg
  DNA content higher than in animals undergoing hepatectomy alone: 15%
[1]; 0.2 mM/kg
  Catalase E activity: 20.0 ± 1.92 μgM/min/g tissue × 1000
  DNA content (in mg/g of tissue): 4.1 ± 0.13 mg/g of tissue
  Protein content: 94.8 ± 8.4 Mg/g tissue
  RNA content (mg/g of tissue): 6.96 ± 0.39 mg/g of tissue
  SOD activity: 98.0 ± 4.6 Units/g tissue
[1]; 0.2 mM/kg intraperitoneally
  Level of recovery: 134.9
[1]; 0.1 and 0.2 mM/kg
  increase of the organ regeneration completeness ratio: 34.9-50.5%
[2]
  Average mitotic index: 0.021 ± 0.001 arbitrary
  Elimination of glycogen from damaged zones (arbitrary): 4.9 ± 0.4 arbitrary
  Necrosis of hepatocytes (arbitrary): 2.7 ± 0.3 arbitrary
[3]
  side effects: No side effects were observed
[3]; added to previous treatment
  duodenal ulcers healed: 80%
  gastric ulcers healed: 54%
[4]; [5]
  Inhibition of oedema(%): 27.88%
  Reaction index (%): 31.04 ± 2.49 %
[4]; [6]
  Inhibition of oedema(%): 44.43%
  Reaction index (%): 25.63 ± 2.86 %
[4]; Intact animals, 50 mg/kg orally 4 days + carrageenin
  Inhibition of oedema(%): 30.41%
[4]; Intact animals, 50 mg/kg orally 4 days + carrageenin, 3 hours
  Reaction index (%): 29.96 ± 2.30 %
[4]; [7]
  Inhibition of oedema(%): 47.43%
  Reaction index (%): 22.63 ± 2.86 %
